Laboratory results published in patent publication US20120022045A1, “BRIDGED COMPOUNDS AS HIV INTEGRASE INHIBITORS” (priority 2009, published 2012).
Like-named read-outs stand apart in the source and are kept apart here.

How the values were obtained:
Format in all cases: cell-based
HIV-1 = assay: Inhibition of acute HIV-1 infection of T-lymphoid cells (spread assay); details: 10% FBS, read-out: IC95 (nM) in the presence of 10% FBS
Protocol: Assays for the inhibition of acute HIV-1 infection of T-lymphoid cells were conducted in accordance with Vacca, J. P. et al., Proc. Natl. Acad. Sci. USA 1994, 91: 4096.

HIV-1 wild type IIIB = assay: Single cycle infectivity assay in HeLa P4-2 cells, wild type virus
Protocol: (§1) An assay for measuring the inhibition of acute HIV-1 infection with HeLa P4-2 cells in a single cycle infectivity assay was conducted using methods described in Joyce et al., J. Biol. Chem. 2002, 277: 45811, Hazuda et al., Science 2000, 287: 646, and Kimpton et al, J. Virol. 1992, 66: 2232. Proviral plasmids encoding viruses containing specific mutations in the integrase gene (N155H, Q148R, Y143R, E92Q, or G140S/Q148H) were generated by site-directed mutagenesis, and viruses were produced by transfecting 293T cells with the appropriate proviral plasmids.

[1] = tested on: HIV-1 integrase mutant virus N155H; assay: Single cycle infectivity assay in HeLa P4-2 cells, integrase mutant N155H virus; details: fold shift in IC50 versus wild type IIIB
Protocol: as §1

[2] = tested on: HIV-1 integrase mutant virus Q148R; assay: Single cycle infectivity assay in HeLa P4-2 cells, integrase mutant Q148R virus; details: fold shift in IC50 versus wild type IIIB
Protocol: as §1

[3] = tested on: HIV-1 integrase mutant virus Y143R; assay: Single cycle infectivity assay in HeLa P4-2 cells, integrase mutant Y143R virus; details: fold shift in IC50 versus wild type IIIB
Protocol: as §1

[4] = tested on: HIV-1 integrase mutant virus G140S/Q148H; assay: Single cycle infectivity assay in HeLa P4-2 cells, integrase mutant G140S/Q148H virus; details: fold shift in IC50 versus wild type IIIB
Protocol: as §1

[5] = Human immunodeficiency virus 1, T-lymphoid
[6] = Human immunodeficiency virus 1, IIIB, HeLaP4-2, wild type IIIB

SMILES	IC95 (HIV-1; [5])	IC50 (HIV-1 wild type IIIB; [6])	N155H (shift) [1]	Q148R (shift) [2]	Y143R (shift) [3]	G140S/Q148H (shift) [4]	IC95 (HIV-1)	IC50 (HIV-1 wild type IIIB; wild type IIIB)
CCCN(C(=O)C(=O)N(C)C)C12CCC(Cn3c1nc(C(=O)NCc1ccc(F)cc1)c(O)c3=O)OC2 (stereo not drawn) [Example 19, N-(4-{[(4-fluorolbenzyl)amino]carbonyl}-5-hydroxy-6-oxo-10-oxa-3,7-diazatricyclo[7.2.2.0^2,7]trideca-2,4-dien-1-yl)-N′,N′-dimethyl-N-propylethanediamide]	15.9 nM	0.008 µM	45 fold	59 fold	7 fold	>209 fold		
CCN(C(=O)C(=O)N(C)C)C12CCC(Cn3c1nc(C(=O)NCc1ccc(F)c(C)c1)c(O)c3=O)OC2 (stereo not drawn) [Example 18A, N-ethyl-N-(4-{[(4-fluoro-3-methylbenzyl)amino]carbonyl}-5-hydroxy-6-oxo-10-oxa-3,7-diazatricyclo[7.2.2.0^2,7]trideca-2,4-dien-1-yl)-N,N-dimethylethanediamide]	9.8 nM	0.019 µM	8 fold	7 fold	2 fold	>88 fold		
CCN(C(=O)C(=O)N(C)C)C12CCC(Cn3c1nc(C(=O)NCc1ccc(F)c(C)c1)c(O)c3=O)OC2 (single isomer, unassigned) [Example 18B, N-ethyl-N-(4-{[(4-fluoro-3-methylbenzyl)amino]carbonyl}-5-hydroxy-6-oxo-10-oxa-3,7-diazatricyclo[7.2.2.0^2,7]trideca-2,4-dien-1-yl)-N,N-dimethylethanediamide]	10.7 nM	0.01 µM	2 fold	2 fold	2 fold	19 fold		
CC1C2CCC(NC(=O)C(=O)N(C)C)(CO2)c2nc(C(=O)NCc3ccc(F)cc3)c(O)c(=O)n21 (single isomer, unassigned) [Example 29D, N′-(4-{[(4-Fluorobenzyl)amino]carbonyl}-5-hydroxy-8-methyl-6-oxo-10-oxa-3,7-diazatricyclo[7.2.2.0^2,7]trideca-2,4-dien-1-yl)-N-dimethylethanediamide]			2 fold	1 fold	1 fold	2 fold	21.6 nM	0.021 µM
CCC12CCC(NC(=O)C(=O)N(C)C)(CO1)c1nc(C(=O)NCc3ccc(F)cc3)c(O)c(=O)n1C2 (single isomer, unassigned) [Example 22B, N′-(9-ethyl-4-{[(4-fluorolbenzyl)amino]carbonyl}-5-hydroxy-6-oxo-10-oxa-3,7-diazatricyclo[7.2.2.0^2,7]trideca-2,4-dien-1-yl)-N,N-dimethylethanediamide]			3 fold	3 fold	1 fold	10 fold	12.6 nM	0.019 µM
CN(C)C(=O)C(=O)N(C)C12CCC(C)(Cn3c1nc(C(=O)NCc1ccc(F)cc1)c(O)c3=O)OC2 (single isomer, unassigned) [Example 21B]			13 fold	11 fold	3 fold	>93 fold	21.0 nM	0.018 µM
CC1C2CCC(N(C)C(=O)C(=O)N(C)C)(CO2)c2nc(C(=O)NCc3ccc(F)cc3)c(O)c(=O)n21 (single isomer, unassigned) [Example 27C, N-(4-{[(4-fluorobenzyl)amino]carbonyl}-5-hydroxy-8-methyl-6-oxo-10-oxa-3,7-diazatricyclo[7.2.2.0^2,7]trideca-2,4-dien-1-yl)-N,N′,N′-trimethylethanediamide]			11 fold	12 fold	3 fold	>111 fold	7.7 nM	0.015 µM
CCC1C2CCC(NC(=O)C(=O)N(C)C)(CO2)c2nc(C(=O)NCc3ccc(F)cc3)c(O)c(=O)n21 (single isomer, unassigned) [Example 26D, N′-(8-ethyl-4-{[(4-fluorobenzyl)amino]carbonyl}-5-hydroxy-6-oxo-10-oxa-3,7-diazatricyclo[7.2.2.0^2,7]trideca-2,4-dien-1-yl)-N-dimethylethanediamide]			1 fold	1 fold	2 fold	1 fold	5.1 nM	0.016 µM
CCC12CCC(N(C)C(=O)C(=O)N(C)C)(CO1)c1nc(C(=O)NCc3ccc(F)cc3)c(O)c(=O)n1C2 (single isomer, unassigned) [Example 20B, N-(9-ethyl-4-{[(4-fluorolbenzyl)amino]carbonyl}-5-hydroxy-6-oxo-10-oxa-3,7-diazatricyclo[7.2.2.0^2,7]trideca-2,4-dien-1-yl)-N,N′,N′-trimethylethanediamide]			7 fold	11 fold	1 fold	102 fold	16.7 nM	0.017 µM
CN(C)C(=O)C(=O)N(C)C1CCCCn2c1nc(C(=O)NCc1ccc(F)cc1)c(O)c2=O (stereo not drawn) [Compound Y, (—)N-(2-{[(4-fluorobenzyl)amino]-carbonyl}-3-hydroxy-4-oxo-4,6,7,8,9,10-hexahydropyrimido[1,2-a]azepin-10-yl)-N,N′,N′-trimethylethanediamide, reference compound]		0.016 µM	15 fold	26 fold	1 fold	410 fold		
CC1(C)OCCn2c1nc(C(=O)NCc1ccc(F)cc1)c(O)c2=O [Compound Z, N-[(4-fluorophenyl)methyl]-3-hydroxy-9,9-dimethyl-4-oxo-4,6,7,9-tetrahydro-6H-pyrimido[2,1-c][1,4]oxazine-2-carboxamide, reference compound]			32 fold	>34 fold	1 fold	>34 fold		0.034 µM
CC1C2CCC(NC(=O)C(=O)N(C)C)(CO2)c2nc(C(=O)NCc3ccc(F)cc3)c(O)c(=O)n21 (single isomer, unassigned) [Example 29B, N′-(4-{[(4-Fluorobenzyl)amino]carbonyl}-5-hydroxy-8-methyl-6-oxo-10-oxa-3,7-diazatricyclo[7.2.2.0^2,7]trideca-2,4-dien-1-yl)-N-dimethylethanediamide]			1 fold	3 fold	2 fold	2 fold		0.069 µM
CNC(=O)C(=O)N(C)C12CCC(OC1)C(C)n1c2nc(C(=O)NCc2ccc(F)cc2)c(O)c1=O (single isomer, unassigned) [Example 28B, N-(4-{[(4-fluorobenzyl)amino]carbonyl}-5-hydroxy-8-methyl-6-oxo-10-oxa-3,7-diazatricyclo[7.2.2.0^2,7]trideca-2,4-dien-1-yl)-N,N′-dimethylethanediamide]							15.9 nM	
Cc1nnc(C(=O)NC(C)(C)c2nc(C(=O)NCc3ccc(F)cc3)c(O)c(=O)n2C)o1 [Compound X, raltegravir, reference compound]		0.052 µM	13 fold	22 fold	15 fold	400 fold		
